In patent US9593146B2, “CD44v6-derived peptides for treating metastasizing cancer” (AMCURE GMBH, priority 2012, dated 2017):

How the values were obtained:
Met and ERK [1] = test: HGF induced activation of Met and ERK in L3.6pl cells (Western blot); format: cell-based, human; conditions: L3.6pl cells, peptide prior to induction with 10 ng/ml HGF
Protocol: (§1) Serum-starved cells (24 hours) were induced with the growth factor HGF (10 ng/mL) at 37° C. for 5 minutes. Where indicated, the cells were treated with peptides (100 ng/ml) prior to induction at 37° C. for 10 minutes (100 ng/mL CD44v6 peptide or control peptide). Following the induction with HGF, cells were washed with ice-cold phosphate-buffered saline (PBS). To detect activated Met and Erk, cells were lysed in sodium dodecyl sulfate (SDS)-sample buffer containing 100 mM dithiothreitol (DTT), boiled and subjected to western blot analysis using antibodies against phospho-Met and ERK. The loading controls were performed on the same blot after stripping (62.5 mM Tris, pH 6.8, 2% SDS, 0.8% DTT) by probing with the Met respectively ERK antibody. Blots were stained using the enhanced chemiluminescence system (Thermo Fisher Scientific, Schwerte, Germany). Bands in western blot analysis were quantified with the program Image J (National Institutes of Health).

L3.6pl cells = test: Human orthotopic model of pancreatic cancer, L3.6pl cells in nude mice; format: in vivo
Protocol: In the case of the human orthotopic model, L3.6pl pancreatic carcinoma cells (passage 24-26) were suspended in Hank's balanced salt solution (Invitrogen, Karlsruhe, Germany) after trypsinization. The cells were injected orthotopically in the pancreas of male nude mice as described (Bruns C J et al. (1999) Neoplasia 1(1):50-62). Two groups of 15 mice each were injected i.p. 7 days later with either the human v6 peptide respectively rat control peptide (20 μg). For all experiments described and depicted herein either the rat 14mer control peptide or the human 14mer peptide were used. All experiments were then repeated with the rat 5mer control peptide or the human 5mer peptide (N-R-W-H-E, SEQ ID NO: 2). […] The injection was repeated three times per week for 21 days. Two days after the last treatment the animals were killed. […]
A comparison of different CD44v6 peptide derivatives was performed in animals bearing a orthotopic L3.6pl tumor. 10 groups of 5 animals each received a dose of 20 μg peptide per injection three times per week for 3 weeks with the compounds listed in Table 4. Three weeks after starting the treatment the animals were sacrificed and analyzed for macroscopic metastases and tumor volume.

BSp73ASs6 cells [2] = test: Apoptosis in established lung metastases (cleaved Caspase-3, cleaved Caspase-8), BSp73ASs6 rat model; format: in vivo; conditions: injection every second day
Protocol: 7 μm thick paraffin sections were deparaffinized and rehydrated. For P-Met staining antigen unmasking was achieved by boiling the slides in 1 mM EDTA pH 8.0 followed by incubation for 15 minutes at a sub-boiling temperature, for CD31 staining the sections were treated with Proteinase K (8 μg/ml) for 10 min at 37° C. For immunofluorescence staining of P-Met, unspecific binding was blocked with 5% goat serum (DAKO, Glostrup, Denmark) (diluted in 1×PBS/0.3% Triton X-100) for 60 minutes. In the case of immunohistochemistry, endogenous peroxidases were at first blocked with 3% H2O2 in PBS followed by incubation with biotin blocking system (Dako, Glostrup, Denmark) and then unspecific binding was inhibited by incubation with 5% FCS in PBS. The sections were incubated with the P-Met antibody (D26, dilution 1:50 in 1×PBS/1% BSA/0.3% Triton X-100), Met antibody (C-28, dilution 1:50), GFP antibody (sc-101525, dilution 1:50) or CD31 antibody (5 μg/ml) over night or VFF18 (5 μg/ml) o/n at 4° C. After washing in PBS the sections were incubated with Alexa Fluor R 546 goat anti-rabbit (in case of immunofluorescence P-Met and Met staining, dilution 1:500) or a biotinylated secondary antibody (for immunohistochemical stainings rabbit anti-rat antibody for VFF18 and CD31, goat anti-rabbit for P-Met, cleaved Caspase-3 and cleaved Caspase-8 and rabbit anti-mouse for GFP, dilution 1:500) for 45 minutes. For DAB (3,3′-diaminobenzidine) staining the sections were treated with a streptavidin-peroxidase conjugate (Dako, Glostrup, Denmark) and developed with DAB substrate system (3,3′-diaminobenzidine; Biozol, Eching, Germany). For immunofluorescence DAPI was used for nuclear staining.
One hypothesis for the disappearance of metastases is that the peptides induce apoptosis of CD44v6-expressing metastatic cells in the secondary organs. In order to test this hypothesis, the experiment described above using the BSp73ASs6 cells was repeated. The cells were injected subcutaneously in syngeneic rats and the tumor was allowed to develop for three weeks. After that time the animals were separated in two groups of 10 animals that were injected either with the specific rat CD44v6 peptide or with the control peptide (mouse) every second day. One day following each injection of the peptide, the lungs of one animal were removed and apoptosis was measured using an antibody that detects the cleaved form of Caspase 3. […] Twelve days after injection of the CD44v6 peptide, less apoptosis was observed. […] From these experiments, it is concluded that the CD44v6 peptide induces apoptosis of metastatic cells.

4T1 cells = test: Syngeneic orthotopic 4T1 mammary carcinoma model in BALB/c mice; format: in vivo; conditions: 20 μg i.p. 3 times per week for two weeks
Protocol: FIG. 26: Treatment with the v6 14mer reduces growth of the primary tumor and macroscopic metastases formation in the lung. 1×10^6 murine 4T1 cells per mouse were diluted in 50 μl RPMI plus 50 μl Matrigel and injected into the 6th mammary fat pad of 10 female BALB/c mice. One week after the injection, the mice were either injected intraperitoneally with 20 μg of the murine v6 14mer dissolved in 100 μl PBS or with 20 μg of control peptide (rat v6 14mer) dissolved in 100 μl PBS. The injection was performed 3 times per week for two weeks. After 2 weeks the mice were sacrificed and the primary tumors and the lungs were extracted. A: Overall reduction of the tumor volume in the v6 peptide treated group. B: Immunofluorescent staining for the endothelial marker CD34 to monitor vascularization of the primary tumor. Graphic representation of the reduction of the total vessel area. C: The v6 peptides led to a reduction in macroscopic lung metastasis. The black arrows mark examples for metastases. The scale bar corresponds to a size of 1 cm. Statistical evaluation of the average number of lung metastases. Significance was calculated using Student's t test: p*<0.01; **p<0.005. Each group consisted of 5 animals.
The effect of the CD44v6 14mer was tested in a syngeneic mouse model by orthotopic injection of the murine mammary carcinoma cells 4T1. 4T1 cells were originally derived from a spontaneously arising BALB/c mammary tumor. When introduced orthotopically, 4T1 cells grow rapidly at the primary site and form metastases in the lung and the lymph nodes within a period of 3-6 weeks. The tumor growth and metastatic spreading of 4T1 cells in BALB/c mice very closely mimics human breast cancer stage IV.
The 4T1 cells were injected orthotopically into the 6th mammary fat pad. Two groups of 5 animals each with the implanted tumor cells were then used for the experiment. One group was treated with the v6 14mer peptide, one with a control (rat) peptide. The injection of the peptide was performed 3 times per week and planned for three to four weeks but had to be stopped after two weeks as the control group suffered from large tumors.

BSp73ASs6 cells [3] = test: Rat syngeneic model, subcutaneous BSp73ASs6 tumor, metastasis formation; format: in vivo; conditions: for metastasis (axillary lymph nodes, lungs): 200 μg per injection, intra-tumoral or intravenously three times a week, start after one week of tumor growth; for outgrowth of primary tumors / metastasis and micro-metastasis in lung sections (PAS and H&E staining): same treatment; for outgrowth of primary tumors: 28 days; for metastasis and micro-metastasis in lung sections (PAS and H&E staining): histological analysis
Protocol: In the case of the rat syngeneic model, 1×10^6 pancreatic cells (BSp73AS and its transfectants) were subcutaneously injected into the right posterior flank of the animals. Tumors developed for four weeks. During this time period animals injected with BSp73ASs6 cells expressing Met-shRNA or control-shRNA received doxycycline in the drinking water. At the end of the experiment, primary tumors were isolated. Lungs and axillary lymph nodes were analyzed. The tissues were incubated for 24 h in a zinc-fixative (0.5 g calcium acetate, 5.0 g zinc acetate, 5.0 g zinc chloride, in 1 L 0.1 M Tris pH 7.4) and embedded in paraffin for further analysis. In case of peptide or antibody treatment tumors developed for one week before the first treatment. Where indicated, animals received 200 μg of peptide or antibody per injection three times per week for four weeks. Tumor growth was monitored weekly using a caliper. Animals were killed at day 28 or 30 after start of the treatment.
For histo-morphological analysis paraffin-embedded sections of lungs were stained with hematoxylin and eosin and periodic acid-Schiff (H&E or PAS). Serial sections of the whole tissue blocks were examined by analyzing slices every 20 μm; in each slice, the presence and the extension of the metastatic deposit was assessed, according to the procedure routinely used by pathologists to evaluate the presence of micro-metastases.

HT29 cells = test: HGF induced scattering of HT29 cells; format: cell-based, human
Protocol: FIG. 17: The human CD44 v6 specific peptides block HGF induced cell scattering and invasion into matrigel. Scattering of HT29 cells was determined in 24-well plates. First, 4.5×10^4 cells were seeded at 37° C.; after 24 h the cells were serum starved for additional 24 h. the cells were either left untreated (control) or later treated with HGF (50 ng/ml) for 24 h. Where indicated the cells were treated with the v6 specific peptide (human v6 5mer, 10mer, 14mer) or control peptide prior to induction with HGF for 30 min. Pictures were made using phase contrast microscopy. Magnification 40×.
A scatter assay was performed additionally. HT29 colon cancer cells were grown in medium containing 10% FCS. One day after seeding, the cells were starved. On the third day, the cells were induced with HGF (10 ng/ml) and pre-incubated with either no peptide, ctrl-peptides (SEQ ID No.: 15), non-pegylated v6-peptides (SEQ ID No.: 11) or the pegylated peptides, namely PEG-rat control peptide and PEG-rat CD44v6 peptide.
Scattering of HT29 cells was determined in 24-well plates. First, 4×10^5 cells were seeded at 37° C.; the cells were either left untreated or 48 h later treated with HGF (50 ng/ml) for 24 h or with PEGylated or non-PEGylated peptides (100 ng/ml) prior to HGF induction for 30 min.

Met and ERK [4] = test: HGF induced activation of Met and Erk in BSp73ASs6 cells (Western blot); format: cell-based, rat; conditions: ASs6 cells, peptides with 2000 dalton PEG-chain, 150 nM 10 min before HGF 10 ng/ml (FIG. 10)
Protocol: as §1
Rat pancreatic cancer cells BSp73ASs6 (also designated Ass6) were incubated for 10 min at 37° C. with either ctrl-peptides (SEQ ID No.: 15), non-pegylated v6-peptides (SEQ ID No.: 11) and increasing concentrations of the pegylated peptides, namely PEG-rat control peptide and PEG-rat CD44v6 peptide, before induction with HGF (10 ng/ml; 5 min at 37° C.).
Activation of ERK and Met was determined by standard SDS and Western Blotting techniques using a phospho-Met and phospho-Erk specific antibody (phospho-Met clone D16 cell signaling, phospho-Erk p42/44 cell signaling)
ASs6 cells, serum starved for 24 h, were induced with HGF (10 ng/ml) at 37° C. for 5 min. Where indicated, the cells were treated with PEGylated or non-PEGylated peptides before induction at 37° C. for 10 min (150 nM). Cells were washed with phosphate-buffered saline (PBS) and lysed in boiling sodium dodecyl sulfate (SDS)-sample buffer containing 100 mM dithiothreitol (DTT). Subsequently, lysates were subjected to Western blot analysis using antibodies against phosphorylated Mek and Erk (Cell signaling). The Mek and Erk loading control were performed on the same blot, stripped (62.5 mM Tris pH 6.8, 2% SDS, 0.8% DTT) and probed with the Mek and Erk antibodies. Blots were stained using the enhanced chemiluminescence system (Thermo Fisher Scientific).

[5] = 20 μg i.p. three times per week for three weeks, start 7 days after implantation

Substance | Phosphorylation of Met and ERK (Met and ERK [1]) | metastasis formation (liver) (L3.6pl cells; [5]) | outgrowth of the primary tumor in the pancreas (L3.6pl cells; [5]) | lung metastasis at day twenty-two (BSp73ASs6 cells [2]) | time of maximum of apoptosis (BSp73ASs6 cells [2]) | first detection of apoptotic cells (cleaved Caspase 3) in tumor areas of the lungs (BSp73ASs6 cells [2]; start three weeks after tumor cell injection) | average number of metastases (4T1 cells; 5 animals) | macroscopic lung metastases per animal (4T1 cells; 5 animals per group) | metastasis (axillary lymph nodes, lungs) (BSp73ASs6 cells [3]) | outgrowth of primary tumors (BSp73ASs6 cells [3]) | metastasis and micro-metastasis in lung sections (PAS and H&E staining) (BSp73ASs6 cells [3]) | HGF induced scattering of HT29 cells (HT29 cells; PEGylated peptides 100 ng/ml prior to HGF 50 ng/ml (Example 5, FIG. 11)) | HGF induced Met-phosphorylation and Erk signaling (Met and ERK [4]) | HGF induced clustering / scattering of HT29 cells (FIG. 11) (HT29 cells; HGF 10 ng/ml, peptide pre-incubation (Example 2)) | all experiments of the human orthotopic model repeated with 5mer peptides (L3.6pl cells; 20 μg i.p. three times per week for 21 days)
KEKWFENEWQGKNP [rat 14mer, rat CD44v6 14mer; control peptide in human and mouse models] | had no influence on receptor activation and signal transduction | neither any influence on metastasis formation | nor on growth of the primary tumor | no metastasis could be detected anymore | eight days after the first injection | as early as three days after the first injection | 6 metastases per lung | all mice treated with the control peptide developed metastases | completely inhibited metastasis | not influenced by either treatment | neither metastasis nor micro-metastasis could be detected |  |  |  | 
PEG-NAAAG [PEG-control peptide, pegylated control peptide, 3 essential aa replaced by alanines, reference compound] |  |  |  |  |  |  |  |  |  |  |  | not with PEGylated control peptides | showed no effect |  | 
NEWQG [rat 5mer, rat CD44v6 5mer peptide] | had no influence on receptor activation and signal transduction |  |  |  |  |  |  |  | completely inhibited metastasis | not influenced by either treatment | neither metastasis nor micro-metastasis could be detected |  |  | lead to dissociation and migration of cells away from these cell cluster | The same results as for the 14mer peptides were observed
